O=C(O)c1cccc(C(=O)O)c1
Conditions | solubility (mole fraction)
in isopropanol, 278.55 K | 0.00218
in isopropanol, 279.87 K | 0.00226
in isopropanol, 283.25 K | 0.00255
in isopropanol, 288.15 K | 0.00291
in isopropanol, 293.15 K | 0.00325
in isopropanol, 298.15 K | 0.00396
in isopropanol, 303.05 K | 0.00459
in isopropanol, 308.25 K | 0.00535
in isopropanol, 313.15 K | 0.00607
in isopropanol, 318.25 K | 0.00675
in methanol, 278.15 K | 0.00253
in methanol, 283.25 K | 0.00276
in methanol, 288.05 K | 0.00314
in methanol, 293.25 K | 0.00346
in methanol, 298.75 K | 0.00379
in methanol, 302.65 K | 0.00411
in methanol, 307.95 K | 0.00456
in n-butanol, 278.06 K | 0.00187
in n-butanol, 283.11 K | 0.00216
in n-butanol, 288.27 K | 0.00234
in n-butanol, 293.3 K | 0.00265
in n-butanol, 298.06 K | 0.00315
in n-butanol, 303.66 K | 0.00366
in n-butanol, 308.36 K | 0.00386
in n-butanol, 312.66 K | 0.00474
in n-butanol, 317.94 K | 0.0052
in n-hexanol, 298.48 K | 0.00244
in n-hexanol, 302.97 K | 0.0032
in n-hexanol, 308.15 K | 0.00362
in n-hexanol, 312.7 K | 0.00424
in n-hexanol, 317.67 K | 0.00477
in n-hexanol, 320.84 K | 0.00544
in n-pentanol, 303.05 K | 0.00408
in n-pentanol, 308.05 K | 0.00532
in n-pentanol, 313.15 K | 0.00594
in n-pentanol, 318.15 K | 0.00651
in n-pentanol, 323.05 K | 0.0074
in n-propanol, 278.15 K | 0.00169
in n-propanol, 280.84 K | 0.0019
in n-propanol, 283.34 K | 0.0022
in n-propanol, 288.17 K | 0.00249
in n-propanol, 293.15 K | 0.00268
in n-propanol, 298.35 K | 0.0032
in n-propanol, 304.05 K | 0.00377
in n-propanol, 308.25 K | 0.00425
in n-propanol, 313.15 K | 0.00473
in n-propanol, 317.55 K | 0.00528
in sec-butanol, 283.05 K | 0.00145
in sec-butanol, 288.05 K | 0.00172
in sec-butanol, 293.15 K | 0.00209
in sec-butanol, 298.25 K | 0.00235
in sec-butanol, 303.45 K | 0.00263
in sec-butanol, 308.25 K | 0.00311
in sec-butanol, 313.25 K | 0.00346
in sec-butanol, 318.15 K | 0.00391

Reference: BigSolDB 2.1
